# According to publication PMC9698716, “From Serendipity to Rational Identification of the 5,6,7,8-Tetrahydrobenzo[4,5]thieno[2,3-d]pyrimidin-4(3H)-one Core as a New Chemotype of AKT1 Inhibitors for Acute Myeloid Leukemia” (Pharmaceutics, 2022):
# Experiments:
# [1] = system: OCI-AML2; assay: Cell growth, viable cell count by trypan blue exclusion; format: cell-based, human; details: OCI-AML2, 5 µM, at 48 and 72 h
# [2] = system: IMS-M2; assay: Apoptosis by flow cytometry (Annexin V/7AAD); format: cell-based, human; details: IMS-M2, 5 µM, 48 h
# Method: (§1) The cell apoptosis was assessed using Annexin V APC- or FITC-conjugated antibodies and counterstained with Propidium Iodide (PI) or 7AAD for the detection of necrotic cells (Becton Dickinson, Franklin Lakes, NJ, USA), according to the manufacturer’s protocol. The data acquisition and analysis were done with a FACS Canto II flow cytometer and data were acquired and analyzed using Diva software (Becton Dickinson, Franklin Lakes, NJ, USA).
# [3] = system: OCI-AML2; assay: Apoptosis by flow cytometry (Annexin V/7AAD); format: cell-based, human; details: OCI-AML2, 5 µM, 48 h
# Method: as §1
# [4] = system: OCI-AML3; assay: Apoptosis by flow cytometry (Annexin V/7AAD); format: cell-based, human; details: OCI-AML3, 5 µM, 48 h
# Method: as §1
# [5] = system: normal donor CD34+ hematopoietic stem/progenitor cells (HSPC); assay: Colony forming unit (CFU) assay; format: cell-based, human; details: 14 days
# Source text: The human AML cell lines, OCI-AML3 (carrying the NPM1 gene mutation A and the DNMT3A^R882C mutation), IMS-M2 (carrying the NPM1 gene mutation A), OCI-AML2 (with the wild-type NPM1 and DNMT3A^R635W mutation), and SKM-1 and MOLM-13 (with the wild-type NPM1) were previously reported. The cell lines were purchased from the Deutsche Sammelung von Mikroorganismen und Zellkulturen (DSMZ) (Braunschweig, Germany) cell bank and maintained according to the vendors’ instructions. Briefly, cultured cells were split every 3 days and maintained in an exponential growth phase. The cell lines were tested for mycoplasma using the Universal Mycoplasma Detection Kit (ATCC). The OCI-AML3 were grown in α-MEM supplemented with 20% fetal bovine serum, 100 U/mL penicillin, and 100 μg/mL streptomycin (P/S), and all other cell lines were cultured in RPMI and supplemented with a 10–20% fetal bovine serum and 100 U/mL penicillin and 100 μg/mL streptomycin. The cells were kept at 37 °C in a 5% CO2 incubator. Prior to screening, the appropriate cell concentration for all cell lines was determined. […] The metabolic cell activity was measured by using the CellTiter Blue proliferation agent (Roche) as described in the manufacturer’s procedure. […] The fluorescence intensity was measured using the automated Tecan plate reader (Tecan Group Ltd., Männedorf, Switzerland) at an excitation/emission wavelength of 531/572 nm. The fluorescence readouts were reported as relative fluorescence units (RFU) and read on a luminescence plate reader (Infinite 200 Pro, Tecan, CA, USA). […] The results are expressed as mean ± standard error of the mean (SEM). […]
# For the CFU assay, 500 CD34+ human cells were plated in a MethoCult™ enriched medium (see Table S4) on a 6-well plate (untreated cells versus T126 at 1, 2.5, and 5 µM, each condition in triplicate). The plates were then incubated for 14 days at 37 °C (5% CO2), and the images were captured and the colonies counted by STEMvision™. […]
# [6] = UV-VIS titration assay with increasing MgCl2; format: physicochemical; details: 100 µM compound, up to 10 mM MgCl2
# Method: The potential ability of T126 to chelate Mg^2+ ions was evaluated by spectrophotometric methods using a T70+ UV-Vis Spectrometer (PG Instruments, Leicestershire, UK) and a quartz cuvette with a 1 cm optical path. MgCl2. 5H2O 1M solution was prepared from powder (VWR International, Milan, Italy). The compound T126 was dissolved in DMSO to a final concentration of 10 mM and diluted with a milliQ water/DMSO mixture to a final concentration of 100 µM (4% DMSO). The obtained solution was placed in a cuvette and the UV-Vis spectra was recorded between 200 and 500 nm using water milliQ (with 4% DMSO) as reference. Thereafter, small volumes of MgCl2 aqueous solution were added both in the sample and in the reference cuvettes to obtain a series of solutions containing increasing concentrations of MgCl2 (1.25, 2.5, 5 and 10 mM), carefully pipetted for mixing, and the UV-Vis spectra were repeated. Each experiment was performed in triplicate.
structure (smiles),measurement,setting,value
O=c1[nH]c(-c2ccc(O)c(O)c2)nc2sc3c(c12)CCCC3 [T126],cell growth inhibition,[1],significant cell growth inhibition
same,induction of apoptosis,[2],significant level of apoptosis
same,induction of apoptosis,[3],significant level of apoptosis
same,induction of apoptosis,[4],significant level of apoptosis
same,colony forming ability of human CD34+ HSPC,[5]; 1 µM,did not inhibit
same,colony forming ability of human CD34+ HSPC,[5]; 2.5 µM,did not inhibit
same,decrease of clonogenic efficiency compared to untreated control,[5]; 5 µM,about 20%
same,ability to chelate Mg^2+ ions,[6],inability of T126 to chelate Mg^2+ ions
